Viscosity and mass density data for one compound are collected here from the NIST ThermoML archive (doi:10.1021/je200963q).

The data set can be described thus: wn = mass fraction of the nth substance listed. Particulars: 303.15 K, 101.3 kPa, Liquid, w1 = 0.08.

Structures are written as SMILES. ± gives the expanded uncertainty stated by the source.

As usually defined, the viscosity is the resistance of a fluid to flow. By mass density is commonly meant mass per unit of volume. In the case of `CCCCOCCOCCO` [3,6-dioxa-1-decanol] + O, the mass density was 996.7 ± 0.4 kg/m3. Moreover, the viscosity (Capillary tube (Ostwald / Ubbelohde) method) is reported as 1.069 ± 0.009 mPa·s.
